Assay [1] concerns wild-type DIO mice. Kind of assay: Diet-induced obesity study, daily intraperitoneal injections. The format is in vivo, mouse. On the procedure:
(§1) Animals were housed at a 12 hours dark/light cycle, temperature and humidity controlled rooms. Mice were purchased from the Jackson LABoratory, except the HDAC6 global knockout (KO) mice, which were provided by Dr. Timothy A. Mckinsey (University of Colorado Anschutz Medical Campus, Aurora, CO, USA.). Mice were fed either regular chow or high fat diet (60 kcal % fat, Research Diets) to induce obesity (diet-induced obesity) and had free access to food and water unless specified. Body composition was analyzed with Bruker's minispec LF50 Body Composition Analyzer. Blood glucose was measured from tail vein by Contour blood glucose monitor system (Bayer). TubA (25 mg/kg body weight) or SE-7552 (50 mg/kg body weight) were administered within 1 hr before dark cycle daily by intraperitoneal (ip.) injections. For intraperitoneal injections, drugs or vehicle was injected at 25 uL volumes per animal. Mice and their food were measured daily or weekly to track body weight and food intake. Hematoxylin and eosin (H&E) staining of liver sections of diet-induced obese mice were done after one month of vehicle or TubA injections.

In assay [2] the test system is db/db mice. In words: Body weight study in db/db mice. To be noted: SE-7552 50 mg/kg, i.p., daily. The format is in vivo, mouse. The procedure:
as §1

The subject of assay [3] is HDAC6 versus all other known HDAC isozymes. The conditions noted are these: cited from earlier work.

The values below come from US20250263412A1, “NON-HYDROXAMATE HDAC6 INHIBITORS AND RELATED METHODS OF USE” (The Regents of the University of Michigan, priority 2021, published 2025).

Each structure is given as a SMILES string.

As for `CC(Nc1ncc(-c2nnc(C(F)F)o2)cn1)c1ccc(F)cc1` (stereo not shown) [SE7552], the “obesity (body weight change, FIG. 1e)” value in assay [1] (SE-7552 50 mg/kg, i.p., daily) is given as “effectively reduces obesity”. Further, the “weight loss (body weight change, FIG. 1f)” value in assay [2] was “ineffective at inducing weight loss”. The “selectivity versus all other known HDAC isozymes” value in assay [3] is “About 1000 fold”.
Consider `CN1CCc2c(c3ccccc3n2Cc2ccc(C(=O)NO)cc2)C1` [Tubastatin A], for which the “diet-induced obesity (FIG. 2)” value in assay [1] (Tubastatin 25 mg/kg, daily i.p.) is recorded as “Reverses Diet-Induced Obesity”.
